Experimental data from publication PMC11537999, “Identification of human pregnane X receptor antagonists utilizing a high-throughput screening platform” (Frontiers in Pharmacology, 2024).

Biological target: T1, hPXR (Homo sapiens, UniProt O75469)
T1 construct: expressed in transfected cells; provided by Dr. Taosheng Chen, St. Jude
T1 sequence (O75469 1-434): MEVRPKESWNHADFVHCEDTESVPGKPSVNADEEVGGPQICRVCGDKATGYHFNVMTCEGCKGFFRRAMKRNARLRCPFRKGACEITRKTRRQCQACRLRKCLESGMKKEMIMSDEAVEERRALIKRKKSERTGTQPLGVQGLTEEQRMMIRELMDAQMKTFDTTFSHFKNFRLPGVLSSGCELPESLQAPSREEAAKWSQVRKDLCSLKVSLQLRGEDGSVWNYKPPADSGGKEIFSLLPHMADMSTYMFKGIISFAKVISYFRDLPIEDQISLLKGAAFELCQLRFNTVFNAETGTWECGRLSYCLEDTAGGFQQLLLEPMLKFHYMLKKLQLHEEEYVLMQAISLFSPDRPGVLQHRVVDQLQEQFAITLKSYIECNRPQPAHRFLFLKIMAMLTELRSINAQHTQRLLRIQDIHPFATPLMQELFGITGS
Assay: PXR luciferase reporter gene assay (qHTS antagonist mode, rifampicin co-treatment) in HepG2-CYP3A4-hPXR cells
Assay type: cell-based
Conditions: 2 μM rifampicin, used as treatment concentration in HepaRG cells
Experimental: HepG2 cells stably transfected with a CYP3A4-luc promoter construct and hPXR expression plasmid were provided by Dr. Taosheng Chen (Department of Chemical Biology and Therapeutics, St. Jude Children’s Research Hospital) ([Lin et al., 2008]). Cells were thawed in EMEM (ATCC, Rockville, Maryland), supplemented with 10% Hyclone FBS (GE Healthcare Life Sciences, Logan, Utah) and 100 U/mL of Penicillin and 100 μg/mL of Streptomycin (Invitrogen, Carlsbad, CA) and kept in an incubator at 37°C and 5% CO2. To culture these HepG2-CYP3A4-hPXR cells, 500 μg/mL of Geneticin (GIBCO, Gaithersburg, MD) was added to the thawing media.
HepG2-CYP3A4-hPXR cells were dispensed into tissue culture treated 1536-well white assay plates (Greiner Bio-One North America, Monroe, NC) using a Multidrop Combi (Thermo Fisher Scientific Inc., Waltham, Massachusetts) at 2,500 cells/4 µL/well. The cell suspension was prepared using new assay media, which contained phenol red-free DMEM (GIBCO), 5% charcoal/dextran-treated FBS (Invitrogen), 1 mM sodium pyruvate (Invitrogen), 2 mM L-Glutamine (Invitrogen), and 100 U/mL of Penicillin and 100 μg/mL of Streptomycin (Invitrogen). All plates were then incubated for 4 h in a 37°C and 5% CO2 incubator. […] In the primary screen, each compound was tested at 7 concentrations ranging from 46 μM to 1.5 nM. 1 μL of rifampicin, a known PXR agonist, was also co-treated in each well, generating a final concentration of 2 μM, using a Flying Reagent Dispenser (Aurora Discovery, Carlsbad, California). All assay plates were placed in an incubator at 37°C with 5% CO2 for 23 h. Following the incubation period, 1 µL of CellTiter-Fluor reagent (Promega, Madison, Wisconsin) was added to each well and all assay plates were placed back into the incubator set at 37°C and 5% CO2 for 1 h. Fluorescence intensity at 540 nm was measured following excitation at 405 nm using a ViewLux plate reader (Perkin Elmer, Shelton, Connecticut), in order to assess cell viability following treatment. Directly after the fluorescent read, 4 μL of ONE-Glo Luciferase reagent (Promega, Madison, Wisconsin) was added to each well using a Flying Reagent Dispenser, and plates were left to sit at room temperature for 30 min. The luminescence of each plate was then measured using the ViewLux plate reader and data were expressed as relative luminescence units. Gross assay performance was assessed by calculating quality metrics, such as coefficient of variance (CV), signal-to-background ratio (S/B), and Z′ factor, a measure of statistical effect size frequently used to judge whether an assay can be scaled up to a large high-throughput screen ([Zhang et al., 1999]).
Data analysis was completed using a previously described protocol ([Huang et al., 2016]). […] Normalized percent activity for all test compounds was determined using the following equation: % activity = [(V compound - V DMSO)/(V DMSO–V pos)] × 100, where V compound denotes the compound well values, V pos denotes the median value of the positive control wells, and V DMSO denotes the median value of the DMSO-only wells. Following normalization, data points were corrected using DMSO-only plates included at the beginning and end of the compound plate stack using an in-house pattern correction algorithm in order to remove background patterns, as well as other small abnormalities within the dataset ([Southall et al., 2009]). […] Efficacy is then [a inf - a 0 ]. a=a0+ainf−a0 c^n/k^n+c^n
Curve class was further converted to curve rank by combining each class with efficacy, such that good quality, efficacious curves are assigned large absolute curve rank values. […] The activity outcome was based on the PXR antagonist readout activity and a cell viability counter screen.

IC70 values from the original NPACT screen | SMILES
4 µM | COc1cc(-c2cn(C3CCc4c(F)cccc4N(CC(F)(F)F)C3=O)nn2)ccc1-n1cnc(C)c1 (centres unmarked) [GSM2]
5 µM | CC(=O)O[C@H]1C[C@@]2(C)[C@@H](C[C@@H](O)[C@H]3[C@@]4(C)CC[C@@H](O)[C@@H](C)[C@@H]4CC[C@@]32C)/C1=C(\CCC=C(C)C)C(=O)O [fusidic acid]
